From US20180265515A1 (Genentech, Inc., priority 2015, published 2018)

Tests used:
[1] = target: T1, isolated recombinant JAK2 kinase domain (Homo sapiens, UniProt O60674); assay: JAK2 enzyme assay (Caliper LabChip, Ki); assay type: biochemical; details: 25 μM ATP
T1 construct: The activity of the isolated recombinant JAK1 and JAK2 kinase domain was measured
Method: (§1) JAK Enzyme Assays were Carried Out as Follows:
(§2) The activity of the isolated recombinant JAK1 and JAK2 kinase domain was measured by monitoring phosphorylation of a peptide derived from JAK3 (Val-Ala-Leu-Val-Asp-Gly-Tyr-Phe-Arg-Leu-Thr-Thr, fluorescently labeled on the N-terminus with 5-carboxyfluorescein) using the Caliper LabChip® technology (Caliper Life Sciences, Hopkinton, Mass.). […] Reactions were incubated at 22° C. in 384-well polypropylene microtiter plates for 30 minutes and then stopped by addition of 25 μL of an EDTA containing solution (100 mM HEPES buffer (pH 7.2), 0.015% Brij-35, 150 mM EDTA), resulting in a final EDTA concentration of 50 mM. After termination of the kinase reaction, the proportion of phosphorylated product was determined as a fraction of total peptide substrate using the Caliper LabChip® 3000 according to the manufacturer's specifications. Ki values were then determined using the Morrison tight binding model (Morrison, J. F., Biochim. Biophys. Acta. 185:269-296 (1969); William, J. W. and Morrison, J. F., Meth. Enzymol., 63:437-467 (1979)) modified for ATP-competitive inhibition [Ki=Ki,app/(1+[ATP]/Km,app)].

[2] = target: T2, isolated recombinant JAK1 kinase domain (Homo sapiens, UniProt P23458); assay: JAK1 enzyme assay (Caliper LabChip, Ki); assay type: biochemical; details: recombinant JAK1 kinase domain, 25 μM ATP
T2 construct: The activity of the isolated recombinant JAK1 and JAK2 kinase domain was measured
T2 sequence (P23458 875-1153 limits assumed): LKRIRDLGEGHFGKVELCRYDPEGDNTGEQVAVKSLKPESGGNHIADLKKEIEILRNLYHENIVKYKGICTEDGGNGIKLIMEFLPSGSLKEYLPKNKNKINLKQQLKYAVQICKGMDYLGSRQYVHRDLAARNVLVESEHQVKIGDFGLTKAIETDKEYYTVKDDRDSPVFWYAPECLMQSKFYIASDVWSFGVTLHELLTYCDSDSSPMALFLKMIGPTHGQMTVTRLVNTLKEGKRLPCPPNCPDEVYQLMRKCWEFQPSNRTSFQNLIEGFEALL
Method: as §1, §2

[3] = tested on: JAK1-dependent STAT6 phosphorylation downstream of IL-13 stimulation in BEAS-2B human bronchial epithelial cells; assay: JAK1 pathway assay in BEAS-2B cells (IL-13 stimulated STAT6 phosphorylation, MSD); assay type: cell-based; details: read-out: P-STAT6 BEAS2B + IL13 IC50
Method: JAK1 Pathway Assay in Cell Lines was Carried Out as Follows:
Inhibitor potency (EC50) was determined in cell-based assays designed to measure JAK1 dependent STAT phosphorylation. As noted above, inhibition of IL-4, IL-13, and IL-9 signaling by blocking the Jak/Stat signaling pathway can alleviate asthmatic symptoms in pre-clinical lung inflammation models (Mathew et al., 2001, J Exp Med 193(9): 1087-1096; Kudlacz et. al., 2008, Eur J. Pharmacol 582(1-3): 154-161).
In one assay approach, TF-1 human erythroleukemia cells obtained from the American Type Culture Collection (ATCC; Manassas, Va.) were used to measure JAK1-dependent STAT6 phosphorylation downstream of IL-13 stimulation. Prior to use in the assays, TF-1 cells were starved of GM-CSF overnight in OptiMEM medium (Life Technologies, Grand Island, N.Y.) supplemented with 0.5% charcoal/dextran stripped fetal bovine serum (FBS), 0.1 mM non-essential amino acids (NEAA), and 1 mM sodium pyruvate. The assays were run in 384-well plates in serum-free OptiMEM medium using 300,000 cells per well. In a second assay approach, BEAS-2B human bronchial epithelial cells obtained from ATCC were plated at 100,000 cells per well of a 96-well plate one day prior to the experiment. The BEAS-2B assay was run in complete growth medium (bronchial epithelial basal medium plus bulletkit; Lonza; Basel, Switzerland).
Test compounds were serially diluted 1:2 in DMSO and then diluted 1:50 in medium just before use. Diluted compounds were added to the cells, for a final DMSO concentration of 0.2%, and incubated for 30 min (for the TF-1 assay) or 1 hr (for the BEAS-2B assay) at 37° C. Then, cells were stimulated with human recombinant cytokine at their respective EC90 concentrations, as previously determined for each individual lot. Cells were stimulated with IL-13 (R&D Systems, Minneapolis, Minn.) for 15 min at 37° C. The TF-1 cell reactions were stopped by the direct addition of 10× lysis buffer (Cell Signaling Technologies, Danvers, Mass.), whereas the BEAS-2B cell incubations were halted by the removal of medium and addition of 1× lysis buffer. The resultant samples were frozen in the plates at −80° C. Compound mediated inhibition of STAT6 phosphorylation was measured in the cell lysates using MesoScale Discovery (MSD) technology (Gaithersburg, Md.). EC50 values were determined as the concentration of compound required for 50% inhibition of STAT phosphorylation relative to that measured for the DMSO control.

T1 sequence (O60674 849-1124 limits assumed): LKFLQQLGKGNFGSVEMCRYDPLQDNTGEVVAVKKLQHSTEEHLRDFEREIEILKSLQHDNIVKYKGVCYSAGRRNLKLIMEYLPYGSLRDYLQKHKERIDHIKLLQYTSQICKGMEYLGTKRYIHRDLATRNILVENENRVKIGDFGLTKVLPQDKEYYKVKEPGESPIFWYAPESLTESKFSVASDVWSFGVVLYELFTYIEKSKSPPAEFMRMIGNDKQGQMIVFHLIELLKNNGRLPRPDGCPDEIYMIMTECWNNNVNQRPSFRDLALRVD

| Compound | Ki [1] | Ki [2] | IC50 [3] |
| --- | --- | --- | --- |
| CSc1ccc(OC(F)F)c(-c2n[nH]cc2NC(=O)c2cnn3cccnc23)c1 [Example 1, N-(3-(2-(difluoromethoxy)-5-(methylthio)phenyl)-1H-pyrazol-4-yl)pyrazolo[1,5-a]pyrimidine-3-carboxamide] | 0.041 nM | 0.079 nM | 2.6 nM |
| CSc1ccc(OC(F)F)c(-c2nn(CC(=O)N3CCC(N(C)CCC#N)CC3)cc2NC(=O)c2cnn3cccnc23)c1 [Example 2, N-[1-[2-[4-[2-cyanoethyl(methyl)amino]-1-piperidyl]-2-oxo-ethyl]-3-[2-(difluoromethoxy)-5-methylsulfanyl-phenyl]pyrazol-4-yl]pyrazolo[1,5-a]pyrimidine-3-carboxamide] | 0.42 nM | 0.28 nM | 25 nM |
| C[S+]([O-])c1ccc(OC(F)F)c(-c2n[nH]cc2NC(=O)c2cnn3cccnc23)c1 (stereo not drawn) [Example 3, N-[3-[2-(difluoromethoxy)-5-methylsulfinyl-phenyl]-1H-pyrazol-4-yl]pyrazolo[1,5-a]pyrimidine-3-carboxamide] | 0.57 nM | 1.7 nM | 430 nM |
| CS(=O)(=O)c1ccc(OC(F)F)c(-c2n[nH]cc2NC(=O)c2cnn3cccnc23)c1 [Example 4, N-[3-[2-(difluoromethoxy)-5-methylsulfonyl-phenyl]-1H-pyrazol-4-yl]pyrazolo[1,5-a]pyrimidine-3-carboxamide] | 0.16 nM | 0.45 nM | 35 nM |
| CSc1ccc(OC(F)F)c(-c2nn(CC(=O)N3CCC(N4CCOCC4)CC3)cc2NC(=O)c2cnn3cccnc23)c1 [Example 5, N-(3-(2-(difluoromethoxy)-5-(methylthio)phenyl)-1-(2-(4-morpholinopiperidin-1-yl)-2-oxoethyl)-1H-pyrazol-4-yl)pyrazolo[1,5-a]pyrimidine-3-carboxamide] | 0.4 nM | 0.29 nM | 15 nM |
| CCN1CCN(C(=O)Cn2cc(NC(=O)c3cnn4cccnc34)c(-c3cc(SC)ccc3OC(F)F)n2)CC1 [Example 6, N-[3-[2-(difluoromethoxy)-5-methylsulfanyl-phenyl]-1-[2-(4-ethylpiperazin-1-yl)-2-oxo-ethyl]pyrazol-4-yl]pyrazolo[1,5-a]pyrimidine-3-carboxamide] | 0.61 nM | 0.49 nM | 18 nM |
| CSc1ccc(OC(F)F)c(-c2nn(CC(=O)N3CCC(CN4CCOCC4)CC3)cc2NC(=O)c2cnn3cccnc23)c1 [Example 7, N-[3-[2-(difluoromethoxy)-5-methylsulfanyl-phenyl]-1-[2-[4-(morpholinomethyl)-1-piperidyl]-2-oxo-ethyl]pyrazol-4-yl]pyrazolo[1,5-a]pyrimidine-3-carboxamide] | 0.49 nM | 0.3 nM | 4.8 nM |
| CSc1ccc(OC(F)F)c(-c2nn(CC(=O)N3CCC(NCCC#N)CC3)cc2NC(=O)c2cnn3cccnc23)c1 [Example 8, N-[1-[2-[4-(2-cyanoethylamino)-1-piperidyl]-2-oxo-ethyl]-3-[2-(difluoromethoxy)-5-methylsulfanyl-phenyl]pyrazol-4-yl]pyrazolo[1,5-a]pyrimidine-3-carboxamide] | 0.39 nM | 0.29 nM | 18 nM |
| CSc1ccc(OC(F)F)c(-c2nn([C@H]3CCCNC3)cc2NC(=O)c2cnn3cccnc23)c1 [Example 9, N-[3-[2-(difluoromethoxy)-5-methylsulfanyl-phenyl]-1-[(3S)-3-piperidyl]pyraxol-4-yl]pyrazolo[1,5-a]pyrimidine-3-carboxamide] | 0.28 nM | 0.44 nM | 5.2 nM |
| CSc1ccc(OC(F)F)c(-c2nn(CCN[C@H]3CCOC3)cc2NC(=O)c2cnn3cccnc23)c1 [Example 10, N-[3-[2-(difluoromethoxy)-5-methylsulfanyl-phenyl]-1-[2-[[(3S)-tetrahydrofuran-3-yl]amino]ethyl]pyrazol-4-yl]pyrazolo[1,5-a]pyrimidine-3-carboxamide] | 0.27 nM | 0.49 nM | 8.8 nM |
| CSc1ccc(OC(F)F)c(-c2nn(CCN[C@@H]3CCOC3)cc2NC(=O)c2cnn3cccnc23)c1 [Example 11, (R)—N-(3-(2-(difluoromethoxy)-5-(methylthio)phenyl)-1-(2-((tetrahydrofuran-3-yl)amino)ethyl)-1H-pyrazol-4-yl)pyrazolo[1,5-a]pyrimidine-3-carboxamide] | 0.21 nM | 0.32 nM | 5.9 nM |
| CSc1ccc(OC(F)F)c(-c2nn([C@H]3CCCN(C)C3)cc2NC(=O)c2cnn3cccnc23)c1 [Example 12, (S)—N-(3-(2-(difluoromethoxy)-5-(methylthio)phenyl)-1-(1-methylpiperidin-3-yl)-1H-pyrazol-4-yl)pyrazolo[1,5-a]pyrimidine-3-carboxamide] | 0.32 nM | 0.41 nM | 6 nM |
| CSc1ccc(OC(F)F)c(-c2nn(CC(=O)N3CCC(N(C)CC(=O)N(C)C)CC3)cc2NC(=O)c2cnn3cccnc23)c1 [Example 13, N-[3-[2-(difluoromethoxy)-5-methylsulfanyl-phenyl]-1-[2-[4-[[2-(dimethylamino)-2-oxo-ethyl]-methyl-amino]-1-piperidyl]-2-oxo-ethyl]pyrazol-4-yl]pyrazolo[1,5-a]pyrimidine-3-carboxamide] | 0.9 nM | 0.44 nM | 57 nM |
| CSc1ccc(OC(F)F)c(-c2nn(CC(=O)N3CCC(N(C)CC(=O)N4CCCC4)CC3)cc2NC(=O)c2cnn3cccnc23)c1 [Example 14] | 0.68 nM | 0.32 nM | 89 nM |
| CSc1ccc(OC(F)F)c(-c2nn(CC(=O)N3CCC(N4CCNC(=O)C4)CC3)cc2NC(=O)c2cnn3cccnc23)c1 [Example 15, N-[3-[2-(difluoromethoxy)-5-methylsulfanyl-phenyl]-1-[2-oxo-2-[4-(3-oxopiperazin-1-yl)-1-piperidyl]ethyl]pyrazol-4-yl]pyrazolo[1,5-a]pyrimidine-3-carboxamide] | 0.38 nM | 0.28 nM | 310 nM |
| CSc1ccc(OC(F)F)c(-c2nn(CC(=O)N3CCN(CCN4CCOCC4)CC3)cc2NC(=O)c2cnn3cccnc23)c1 [Example 16, N-[3-[2-(difluoromethoxy)-5-methylsulfanyl-phenyl]-1-[2-[4-(2-morpholinoethyl)piperazin-1-yl]-2-oxo-ethyl]pyrazol-4-yl]pyrazolo[1,5-a]pyrimidine-3-carboxamide] | 0.5 nM | 0.39 nM | 18 nM |
| CSc1ccc(OC(F)F)c(-c2nn(CC(=O)N3CCC(N(C)CCCC#N)CC3)cc2NC(=O)c2cnn3cccnc23)c1 [Example 17, N-[1-[2-[4-[3-cyanopropyl(methyl)amino]-1-piperidyl]-2-oxo-ethyl]-3-[2-(difluoromethoxy)-5-methylsulfanyl-phenyl]pyrazol-4-yl]pyrazolo[1,5-a]pyrimidine-3-carboxamide] | 0.53 nM | 0.27 nM | 5 nM |
| CSc1ccc(OC(F)F)c(-c2nn(CC(=O)N3CCC(N4CCC(C#N)CC4)CC3)cc2NC(=O)c2cnn3cccnc23)c1 [Example 18, N-[1-[2-[4-(4-cyano-1-piperidyl)-1-piperidyl]-2-oxo-ethyl]-3-[2-(difluoromethoxy)-5-methylsulfanyl-phenyl]pyrazol-4-yl]pyrazolo[1,5-a]pyrimidine-3-carboxamide] | 0.37 nM | 0.24 nM | 6 nM |
